Test results published in ChEMBL document CHEMBL3228004, “An attempt to apply lethal synthesis to the design of chemotherapeutic agents. Fluorinated 5 beta-(hydroxyethyl)-4-methylthiazoles” (J Med Chem, 1979).
Calls of active or inactive are those of the source. No cut-off for these calls is given here.

What was measured:
[1] = test system: Escherichia coli; assay: Antibacterial activity against Escherichia coli B; type: functional, organism-based
[2] = test system: Escherichia coli; assay: Antibacterial activity against Escherichia coli AS19; type: functional, organism-based

SMILES | inhibition [1] | inhibition [2]
OCCc1scnc1C(F)(F)F | inactive | inactive
Cc1nc(F)sc1CCO | inactive | inactive
